In ChEMBL document CHEMBL5321238, “Small-molecule theranostics in Alzheimer's disease” (Eur J Med Chem, 2023):

Biological target: Amyloid-beta precursor protein (Homo sapiens) (UniProt P05067)
Test: Binding affinity to amyloid beta (1 to 40 residues) (unknown origin) aggregation assessed as fold increase in fluorescence intensity

Chain of Amyloid-beta precursor protein (Homo sapiens) (P05067 whole entry, the tested form may be a part): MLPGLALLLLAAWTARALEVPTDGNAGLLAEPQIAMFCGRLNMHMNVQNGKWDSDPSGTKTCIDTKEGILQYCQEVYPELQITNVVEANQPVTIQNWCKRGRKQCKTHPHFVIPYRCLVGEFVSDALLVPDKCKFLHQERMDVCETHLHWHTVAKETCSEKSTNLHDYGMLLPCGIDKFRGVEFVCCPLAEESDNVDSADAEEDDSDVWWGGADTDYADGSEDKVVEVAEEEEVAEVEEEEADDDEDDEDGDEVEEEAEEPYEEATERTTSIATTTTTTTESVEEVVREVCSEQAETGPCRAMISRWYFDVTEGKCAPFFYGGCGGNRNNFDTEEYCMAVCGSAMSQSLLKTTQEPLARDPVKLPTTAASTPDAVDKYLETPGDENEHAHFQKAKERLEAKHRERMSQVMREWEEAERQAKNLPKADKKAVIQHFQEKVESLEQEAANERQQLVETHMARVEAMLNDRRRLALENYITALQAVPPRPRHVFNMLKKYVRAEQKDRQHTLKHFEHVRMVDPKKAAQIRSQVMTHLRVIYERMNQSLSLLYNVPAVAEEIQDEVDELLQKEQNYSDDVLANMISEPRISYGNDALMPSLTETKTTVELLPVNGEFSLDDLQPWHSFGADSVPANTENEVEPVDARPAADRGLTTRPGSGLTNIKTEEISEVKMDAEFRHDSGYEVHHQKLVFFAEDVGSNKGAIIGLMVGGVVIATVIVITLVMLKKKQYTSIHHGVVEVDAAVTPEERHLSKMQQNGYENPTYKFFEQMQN

Question: With `CN(C)c1ccc(/C=C/C2=CC(/C=C/c3ccc(N(C)C)cc3)=[O+][B-](F)(F)O2)cc1` as the molecule, how does the fold change (FC) read?
Answer: The fold change (FC) was 70.
